{"source": "patent US20130177904A1", "about": "“ARNT ISOFORM 3 AS A PREDICTOR OF AMINOFLAVONE RESPONSIVENESS IN CANCER CELLS” (UNIVERSITY OF MARYLAND, BALTIMORE, priority 2010, published 2013)", "origin": "cited, not measured here", "tested_on": "nonspecific plasma esterases", "details": "by nonspecific plasma esterases; cited from earlier work", "data": [{"smiles": "CS(=O)(=O)O.Cc1c(F)c(N)c2c(=O)cc(-c3ccc(NC(=O)[C@@H](N)CCCCN)c(F)c3)oc2c1F", "note": "[AFP-464]", "values": [{"measurement": "conversion to AF in plasma", "result": "rapid conversion to AF"}]}]}
